Data reported in patent publication US10660884B2, “Phosphonate-chloroquine conjugates and methods using same” (University of Rochester, priority 2015, dated 2020).

Experiments:
[1] = system: WT mouse bone marrow (BM) cells (OC precursors); assay: Osteoclastogenesis assay: OC formation on plastic, TRAP staining; type: cell-based; settings: for Inhibition of osteoclast activity by osteoclast staining: WT mouse BM cells, images FIGS. 11-12
TRAF3 = assay: Western blot of RANKL-induced TRAF3 degradation; type: cell-based, mouse; settings: 3 μM, 8 hrs, Western blotting
Experimental: WT mouse BM cells, cultured with M-CSF as in FIG. 6, were treated with vehicle, BTCQ, CQ or NC-BTCQ (3 μM) for 8 hrs. Cell lysates were used to test TRAF3 and actin protein levels by Western blotting.
Cultured cells were lysed with M-Per mammalian protein extraction reagent. 10-20 μg protein were loaded onto 10% SDS-PAGE gels, transferred onto polyvinylidene difluoride membranes, incubated with primary and secondary Abs, followed by exposure to ECL substrate. Signals were analyzed using a Bio-Rad imaging system.

bone resorption = settings: cited from earlier work; for Prevention of bone resorption in mice: literature report
[2] = literature; cited from earlier work

Structure (SMILES)	Inhibition of osteoclast activity by osteoclast staining [1]	OC formation (OC numbers after TRAP staining) ([1]; BM cells on plastic, M-CSF 2 days, then RANKL plus compound 3 more days)	Concentration at which OC formation was inhibited (BTCQ more effective than CQ) ([1]; on plastic, FIG. 2A) [µM]	Prevention of RANKL-induced degradation of TRAF3 (TRAF3)	Dose that effectively blocks PTH-induced marrow fibrosis (bone resorption; Xiu Y et al., 2014) [mg/kg]	Prevention of bone resorption in mice (bone resorption)	Blindness, share of patients [2]
CCN(CC)CCCC(C)N(C(=O)OCCCCCCCC(=O)NC(P(=O)(O)O)P(=O)(O)O)c1ccnc2cc(Cl)ccc12 (racemic) [UR-11, rac-(13-(7-chloroquinolin-4-yl)-18-ethyl-14-methyl-3,12-dioxo-11-oxa-2,13,18-triazaicosane-1,1-diyl)diphosphonic acid]	more effective at inhibiting osteoclast activity than the non cleavable amide UR-12						
CCN(CC)CCCC(C)Nc1ccnc2cc(Cl)ccc12.O=P(O)(O)O.O=P(O)(O)O (stereo not shown) [CQ, 7-chloro-4-[[4-(diethylamino)-1-methylbutyl]amino] quinoline phosphate (1:2)]	more effective at inhibiting osteoclast activity than HCQ	inhibited OC formation	3	unlike CQ and BTCQ, NC-BTCQ does not prevent RANKL-induced degradation of TRAF3	50	prevents bone resorption and osteoporosis	
CCN(CCO)CCCC(C)Nc1ccnc2cc(Cl)ccc12 (stereo not shown) [HCQ, hydroxychloroquine]	CQ and BTCQ are more effective at inhibiting osteoclast activity than HCQ					does not prevent bone resorption in mice	0.5-1%
